Measured values: PMC5054527, “Mechanism of high affinity inhibition of the human urate transporter URAT1” (Scientific Reports, 2016)

Assays:
human URAT1 = target: T1, human URAT1 (Homo sapiens, UniProt Q96S37); experiment: ^3H-RDEA3170 URAT1 membrane binding assay
T1 construct: hURAT1 and rURAT1 are 553 amino acid proteins with 12 transmembrane segments; expressed in transfected cells; host or cells: URAT1-transfected cells (HEK-293T per the transfection section)
T1 sequence (Q96S37 1-553): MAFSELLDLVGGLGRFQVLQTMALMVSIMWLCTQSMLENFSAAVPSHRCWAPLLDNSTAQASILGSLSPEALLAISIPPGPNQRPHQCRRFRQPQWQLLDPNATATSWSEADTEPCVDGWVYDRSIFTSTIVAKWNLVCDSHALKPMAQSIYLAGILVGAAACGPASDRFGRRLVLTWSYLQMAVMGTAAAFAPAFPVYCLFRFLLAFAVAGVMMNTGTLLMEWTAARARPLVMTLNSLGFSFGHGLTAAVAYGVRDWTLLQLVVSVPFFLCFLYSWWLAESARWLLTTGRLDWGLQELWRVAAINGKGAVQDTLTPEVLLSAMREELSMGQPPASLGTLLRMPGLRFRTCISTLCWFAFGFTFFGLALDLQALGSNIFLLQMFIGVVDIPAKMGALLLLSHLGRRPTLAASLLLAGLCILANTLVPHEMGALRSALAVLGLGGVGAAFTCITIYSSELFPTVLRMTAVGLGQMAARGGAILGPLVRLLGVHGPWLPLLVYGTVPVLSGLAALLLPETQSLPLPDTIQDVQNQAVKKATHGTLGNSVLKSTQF
Protocol: (§1) Membranes were prepared from URAT1-transfected cells. […] Cells were lysed with 100 strokes in a dounce homogenizer using a tight-fitting “B” stem. Lysates were transferred to 1.5 ml Eppendorf tubes and centrifuged at 250 rcf for 5 minutes at 2 °C, and supernatants were transferred to fresh tubes and centrifuged again at 18,000 rcf for 20 minutes at 2 °C. The pellets (membrane fractions) were resuspended in 1 ml of ice-cold binding buffer containing protease inhibitors and frozen at −80 °C. Protein was measured using the Bio-Rad protein assay dye reagent concentrate.
(§2) To initiate binding, membranes at 2.5 μg total protein were incubated with ^3H-RDEA3170 for 30 minutes at room temperature. […] The plates were then subjected to scintillation counting. All samples were assayed in triplicate.

rat URAT1 = target: T2, rat URAT1 (Rattus norvegicus, UniProt Q3ZAV1); experiment: ^3H-RDEA3170 URAT1 membrane binding assay; conditions: 500 nM ^3H-RDEA3170; membranes from transfected cells
T2 construct: hURAT1 and rURAT1 are 553 amino acid proteins with 12 transmembrane segments; expressed in transfected cells; host or cells: URAT1-transfected cells (HEK-293T per the transfection section)
T2 sequence (Q3ZAV1 whole entry): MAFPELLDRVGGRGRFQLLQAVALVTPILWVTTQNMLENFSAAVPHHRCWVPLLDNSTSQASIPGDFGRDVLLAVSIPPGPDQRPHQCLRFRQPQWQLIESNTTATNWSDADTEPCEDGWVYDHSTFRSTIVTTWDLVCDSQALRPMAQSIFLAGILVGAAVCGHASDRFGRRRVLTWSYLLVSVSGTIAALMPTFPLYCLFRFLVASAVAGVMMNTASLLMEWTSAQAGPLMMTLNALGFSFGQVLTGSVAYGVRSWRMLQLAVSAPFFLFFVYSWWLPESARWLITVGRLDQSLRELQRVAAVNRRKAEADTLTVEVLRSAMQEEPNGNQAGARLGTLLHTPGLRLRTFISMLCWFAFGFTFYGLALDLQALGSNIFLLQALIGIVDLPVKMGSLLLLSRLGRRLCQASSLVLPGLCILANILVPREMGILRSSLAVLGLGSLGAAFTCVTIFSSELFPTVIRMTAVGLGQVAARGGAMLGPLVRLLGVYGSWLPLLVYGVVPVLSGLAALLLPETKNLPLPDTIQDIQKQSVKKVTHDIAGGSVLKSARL
Protocol: as §1, §2

| Structure (SMILES) | binding of probe to human URAT1 membranes (human URAT1; 500 nM ^3H-RDEA3170, membranes from transfected cells) | binding of probe to rat URAT1 membranes (rat URAT1) | displacement of ^3H-RDEA3170 binding to hURAT1 (human URAT1; human URAT1 membranes, 10 nM ^3H-RDEA3170) |
| --- | --- | --- | --- |
| CC(C)(Sc1ccncc1-c1ccc(C#N)c2ccccc12)C(=O)O [^3H-RDEA3170, 2-((3-(4-cyanonaphthalen-1-yl)pyrindin-4-yl)thio)-2-methylpropanoic acid] | binds to human URAT1 | not rat URAT1 | – |
| CCCN(CCC)S(=O)(=O)c1ccc(C(=O)O)cc1 [probenecid] | – | – | displace binding of the probe |
